Assay results: patent US20260193179A9 (priority 2018, published 2026)
Structures can show the parent of a compound that is named as a salt. Where two headings read alike, the source gives them in different places.

Experiments:
human α-thrombin = human α-thrombin (Homo sapiens, UniProt P00734); assay: Enzymatic Assay for Thrombin (Boc-VPR-AMC substrate); format: biochemical
mMASP-2 = mMASP-2 (Mus musculus, UniProt Q91WP0); assay: Enzymatic assay for mMASP-2; format: biochemical
Lectin Pathway = Lectin Pathway Activation Assay in Human Serum (mannan-coated ELISA, C3c detection); format: biochemical; conditions: 1% human serum
Procedure: Microtiter ELISA plate was coated with mannan from Saccharomyces cerevisiae (Sigma-Aldrich, M7504) for overnight at 4° C. in coating buffer [15 mM Na2CO3, 35 mM NaHCO3]. Plate was blocked with 1% bovine serum albumin (BSA) (Sigma-Aldrich, A3294) in Tris-buffered Saline (TBS) [10 mM Tris-HCl, 140 mM NaCl] for 2 hours at room temperature. […] 100 μL of this mixture were then added to the plate and plate was incubated at 37° C. for up to an hour with gentle shaking, 200 rpm. After that, plate was washed thrice in wash buffer [TBS containing 5 mM CaCl2) and 0.05% Tween-20] and 100 μL of rabbit anti human C3c (Dako, A0062) diluted 1:5000 in wash buffer were added and incubated at 37° C. for 30 minutes.

MASP-2 (CCP1-CCP2-SP) [1] = biological target: MASP-2 (CCP1-CCP2-SP) (Homo sapiens, UniProt O00187); assay: Enzymatic Assay for MASP-2 (fluorogenic substrate); format: biochemical
Chain of MASP-2 (CCP1-CCP2-SP) (Homo sapiens, UniProt O00187) (O00187 445-686): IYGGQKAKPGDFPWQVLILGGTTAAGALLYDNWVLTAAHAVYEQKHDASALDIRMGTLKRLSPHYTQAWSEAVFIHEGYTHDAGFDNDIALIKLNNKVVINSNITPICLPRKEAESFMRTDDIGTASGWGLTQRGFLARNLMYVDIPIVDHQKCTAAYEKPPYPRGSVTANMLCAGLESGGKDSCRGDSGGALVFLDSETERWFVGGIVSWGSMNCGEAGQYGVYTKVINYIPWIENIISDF
Chain of MASP-2 (CCP1-CCP2-SP) (Homo sapiens, UniProt O00187) (O00187 298-444): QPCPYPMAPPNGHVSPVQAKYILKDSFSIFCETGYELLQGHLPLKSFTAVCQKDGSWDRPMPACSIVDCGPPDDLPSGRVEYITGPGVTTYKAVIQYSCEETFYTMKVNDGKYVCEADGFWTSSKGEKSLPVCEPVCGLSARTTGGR

MASP-2 (CCP1-CCP2-SP) [2] = assay: Enzymatic Assay for MASP-2 (fluorogenic substrate); format: biochemical, human; conditions: selectivity for MASP-2 inhibition versus thrombin
[3] = human α-thrombin, Boc-VPR-AMC substrate

Chain of mMASP-2 (Q91WP0 20-685): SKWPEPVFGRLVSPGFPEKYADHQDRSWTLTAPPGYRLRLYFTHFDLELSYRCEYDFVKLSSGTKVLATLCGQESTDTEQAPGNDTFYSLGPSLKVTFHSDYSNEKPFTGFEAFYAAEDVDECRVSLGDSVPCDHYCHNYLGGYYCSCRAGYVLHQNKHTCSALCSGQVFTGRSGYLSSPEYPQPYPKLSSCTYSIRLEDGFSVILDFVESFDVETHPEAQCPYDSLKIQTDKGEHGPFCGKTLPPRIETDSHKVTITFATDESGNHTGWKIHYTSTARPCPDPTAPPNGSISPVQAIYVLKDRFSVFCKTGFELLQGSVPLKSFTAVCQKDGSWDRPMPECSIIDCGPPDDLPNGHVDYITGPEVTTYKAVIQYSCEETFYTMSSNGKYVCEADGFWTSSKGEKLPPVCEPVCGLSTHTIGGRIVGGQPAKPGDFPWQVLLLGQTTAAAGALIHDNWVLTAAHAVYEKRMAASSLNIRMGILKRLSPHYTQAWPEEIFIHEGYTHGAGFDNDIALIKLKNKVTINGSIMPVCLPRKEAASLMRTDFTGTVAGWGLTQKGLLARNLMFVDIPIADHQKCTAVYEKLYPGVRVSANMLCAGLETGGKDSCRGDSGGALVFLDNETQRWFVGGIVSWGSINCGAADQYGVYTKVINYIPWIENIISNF

Structure (SMILES)	Ki (mMASP-2) [µM]	Ki (MASP-2 (CCP1-CCP2-SP) [1]) [nM]	MASP-2 vs. thrombin selectivity (MASP-2 (CCP1-CCP2-SP) [2])	IC50 (Lectin Pathway; mannan-coated plate) [nM]	other results
Cc1nc(N)ccc1CNC(=O)C(C)NC(=O)[C@H]1C[C@H](c2cccc(-c3ccccc3)c2)CN1 (stereo in doubt) [compound 1359, (2R,4R)-4-([1,1′-Biphenyl]-3-yl)-N—((S)-1-(((6-amino-2-methylpyridin-3-yl)methyl)amino)-1-oxopropan-2-yl)pyrrolidine-2-carboxamide Di-trifluoroacetate salt]					Ki (human α-thrombin; [3]): > 25 µM
C[C@H](NC(=O)[C@H](N)CCc1ccccc1)C(=O)NCc1cccc(Cl)c1 [compound 1021]	> 25				Ki (human α-thrombin): > 25 µM; IC50 (Lectin Pathway): > 50000 nM
C[C@H](NC(=O)[C@H](N)CCc1ccccc1)C(=O)NCc1ccc2c(N)ncnc2c1 [compound 1060, (R)-2-Amino-N—((S)-1-(((4-aminoquinazolin-7-yl)methyl)amino)-1-oxopropan-2-yl)-4-phenylbutanamide Dihydrochloride]		< 2500			
C[C@H](NC(=O)[C@H](N)CCc1cccc(Cl)c1)C(=O)NCc1ccc(C(=N)N)cc1 [compound 1081]	< 0.5				IC50 (Lectin Pathway): 50 to 5000 nM
C[C@H](NC(=O)[C@@H](CCc1ccccc1)NCc1ccc(C(=O)N2CCOCC2)cc1)C(=O)NCc1ccc(C(=N)N)cc1 [compound 1153]		< 500			Ki (human α-thrombin): < 0.5 µM
C[C@H](NC(=O)[C@H](N)CCc1ccccc1)C(=O)NCc1cc(Cl)ccc1C#N [compound 1313, Trifluoroacetate salt]	> 25	2500 to 10000			Ki (human α-thrombin; [3]): 10 to 25 µM
C[C@H](OC(=O)[C@H](N)CCc1ccccc1)C(=O)NCc1ccc(C(=N)N)cc1 [compound 1315, (S)-1-((4-Carbamimidoylbenzyl)amino)-1-oxopropan-2-yl (R)-2-amino-4-phenylbutanoate Hydrochloride]		500 to 2500			Ki (human α-thrombin; [3]): 2.5 to 10 µM
Cc1nc(N)ccc1CNC(=O)[C@H](C)NC(=O)[C@H]1C[C@H](Cc2ccc(-c3cccnc3)cc2)CN1 [compound 1357, (2R,4S)—N—((S)-1-(((6-Amino-2-methylpyridin-3-yl)methyl)amino)-1-oxopropan-2-yl)-4-(4-(pyridin-3-yl)benzyl)pyrrolidine-2-carboxamide Di-trifluoracetate salt]			**** (≥100-fold)	< 50	
Cc1cc(Cl)cc(CNC(=O)[C@H](C)NC(=O)[C@H]2C[C@@H](c3ccccc3)CCN2)c1O [compound 1365, (2R,4S)—N—((S)-1-((5-Chloro-2-hydroxy-3-methylbenzyl)amino)-1-oxopropan-2-yl)-4-phenylpiperidine-2-carboxamide]			**** (≥100-fold)	< 50	
Cc1nc(N)ccc1CNC(=O)[C@H](CCC(N)=O)NC(=O)[C@H](N)CCc1ccccc1 [compound 1376, (S)—N^1-((6-Amino-2-methylpyridin-3-yl)methyl)-2-((R)-2-amino-4-phenylbutanamido)pentanediamide]	> 25	500 to 2500			Ki (human α-thrombin; [3]): > 25 µM
Cc1nc(N)ccc1CNC(=O)[C@H](C)NC(=O)[C@H]1C[C@H](Cc2ccc(C3CCC3)cc2)CN1 [compound 1379, (2R,4S)—N—((S)-1-(((6-Amino-2-methylpyridin-3-yl)methyl)amino)-1-oxopropan-2-yl)-4-(4-cyclobutylbenzyl)pyrrolidine-2-carboxamide]			**** (≥100-fold)	500 to 5000	
C[C@H](NC(=O)[C@H]1C[C@H](Cc2ccc3ccccc3c2)CN1)C(=O)NCc1cc(Cl)ccc1-n1cnnn1 [compound 1385, (2R,4S)—N—((S)-1-((5-chloro-2-(1H-tetrazol-1-yl)benzyl)amino)-1-oxopropan-2-yl)-4-(naphthalen-2-ylmethyl)pyrrolidine-2-carboxamide]			** (≥5.0 to <25-fold)	50 to 500	
Cc1nc(N)ccc1CNC(=O)[C@H](C)NC(=O)[C@H]1C[C@H](Cc2ccc(N3CCCC3=O)cc2)CN1 [compound 1391, (2R,4S)—N—((S)-1-(((6-Amino-2-methylpyridin-3-yl)methyl)amino)-1-oxopropan-2-yl)-4-(4-(2-oxopyrrolidin-1-yl)benzyl)pyrrolidine-2-carboxamide]			**** (≥100-fold)	500 to 5000	
C[C@H](NC(=O)[C@H]1C[C@H](Cc2ccccc2-c2ccccc2)CN1)C(=O)NCc1cnc2[nH]cc(Cl)c2c1 [compound 1393, (2R,4S)-4-([1,1′-Biphenyl]-2-ylmethyl)-N—((S)-1-(((3-chloro-1H-pyrrolo[2,3-b]pyridin-5-yl)methyl)amino)-1-oxopropan-2-yl)pyrrolidine-2-carboxamide]			* (≥1.0 to <5.0-fold)	50 to 500	
COc1cc(C[C@@H]2CN[C@@H](C(=O)N[C@@H](C)C(=O)NCc3cc(Cl)ccc3-n3cnnn3)C2)cc(OC)c1 [compound 1419, (2R,4S)—N—((S)-1-((5-Chloro-2-(1H-tetrazol-1-yl)benzyl)amino)-1-oxopropan-2-yl)-4-(3,5-dimethoxybenzyl)pyrrolidine-2-carboxamide]	< 0.5		* (≥1.0 to <5.0-fold)		
